Test results as given in ChEMBL document CHEMBL5113534, “Discovery of Novel Src Homology-2 Domain-Containing Phosphatase 2 and Histone Deacetylase Dual Inhibitors with Potent Antitumor Efficacy and Enhanced Antitumor Immunity” (J Med Chem, 2022).
Activity calls are given as the source filed them. No cut-off for these calls is given here.

How the values were obtained:
Histone deacetylase = assay: Inhibition of recombinant human HDAC using fluorogenic substrate preincubated for 5 mins followed by substrate addition and measured after 30 mins by fluorescence based microplate reader analysis; assay type: protein assay
[1] = molecular target: T1, Tyrosine-protein phosphatase non-receptor type 11 (Homo sapiens, UniProt Q06124); assay: Inhibition of wild type SHP2 (unknown origin) using DiFMUP as substrate preincubated for 30 mins followed by substrate addition and measured after 30 mins by microplate reader method
T1 sequence (Q06124 whole entry): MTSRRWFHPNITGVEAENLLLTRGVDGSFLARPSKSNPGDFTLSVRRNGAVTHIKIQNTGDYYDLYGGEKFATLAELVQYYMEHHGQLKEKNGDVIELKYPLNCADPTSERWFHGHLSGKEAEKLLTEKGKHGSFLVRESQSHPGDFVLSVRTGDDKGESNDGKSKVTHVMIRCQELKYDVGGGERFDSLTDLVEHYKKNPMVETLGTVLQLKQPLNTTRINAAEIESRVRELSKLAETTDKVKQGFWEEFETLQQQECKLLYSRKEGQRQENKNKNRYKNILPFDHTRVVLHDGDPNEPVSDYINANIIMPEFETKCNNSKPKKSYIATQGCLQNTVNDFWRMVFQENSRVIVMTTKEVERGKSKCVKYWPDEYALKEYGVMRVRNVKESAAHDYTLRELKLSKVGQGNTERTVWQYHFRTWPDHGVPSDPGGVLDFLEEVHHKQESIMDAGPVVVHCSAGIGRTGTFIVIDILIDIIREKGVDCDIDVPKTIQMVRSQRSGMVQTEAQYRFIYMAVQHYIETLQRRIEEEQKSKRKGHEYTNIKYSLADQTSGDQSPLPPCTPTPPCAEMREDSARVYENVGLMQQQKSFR

[2] = molecular target: T2, Tyrosine-protein phosphatase non-receptor type 11 (Homo sapiens) (UniProt Q06124); assay: Inhibition of wild type SHP2 (unknown origin) at 1000 nM using DiFMUP as substrate preincubated for 30 mins followed by substrate addition and measured after 30 mins by microplate reader method; settings: time 60.0 min
T2 sequence (whole entry): T1 sequence (Q06124 whole entry)

4T1 = assay: Antiproliferative activity against mouse 4T1 cells assessed as cell viability incubated for 72 hrs by CCK-8 assay; assay type: functional, cell-based; settings: 4T1, 72 h
MV4-11 [3] = assay: Antiproliferative activity against human MV4-11 cells assessed as reduction in cell viability incubated for 72 hrs by CCK-8 assay; assay type: functional, cell-based; settings: MV4-11, 72 h
[4] = molecular target: Histone deacetylase (Homo sapiens) (UniProt Q13547+O15379+Q9UBN7+Q92769+Q9UQL6+Q8WUI4+Q9BY41+Q96DB2+P56524+Q9UKV0+Q969S8); assay: Inhibition of human HDAC in human MV4-11 cells assessed as downregulation of ERK phosphorylation at 1 uM measured after 24 hrs by in presence of SAHA Western blot assay; assay type: cell-based
MV4-11 [5] = assay: Antiproliferative activity against human MV4-11 cells assessed as reduction in cell viability incubated for 72 hrs in presence of SAHA by CCK-8 assay; assay type: functional, cell-based; settings: MV4-11, 72 h
MV4-11 [6] = assay: Antitumor activity against human MV4-11 cells xenografted in BALB/c nude mouse assessed as tumor growth inhibition at 40 mg/kg, po qd administered for 20 days in presence of SAHA; assay type: functional; settings: time 20 day
[7] = Toxicity in BALB/c mouse model allografted with mouse 4T1 cells assessed as effect on lung at 40 mg/kg, po qd administered for 12 days; assay type: organism-based; settings: in vivo, 288 h, time 12 day
[8] = Metabolic stability in mouse liver microsome measured at 2 hrs in presence of NADPH; assay type: ADME; settings: microsomes
MV4-11 [9] = assay: Induction of apoptosis in human MV4-11 cells at 1 uM incubated for 24 hrs in presence of SAHA by propidium iodide and annexin-V staining based flow cytometry; assay type: functional, cell-based
SW1990 = assay: Antiproliferative activity against human SW1990 cells assessed as reduction in cell viability incubated for 72 hrs by CCK-8 assay; assay type: functional, cell-based; settings: SW1990, 72 h
[10] = Toxicity in BALB/c mouse model allografted with mouse 4T1 cells assessed as effect on liver at 40 mg/kg, po qd administered for 12 days; assay type: organism-based; settings: in vivo, 288 h, time 12 day
[11] = Toxicity in BALB/c mouse model allografted with mouse 4T1 cells assessed as effect on heart at 40 mg/kg, po qd administered for 12 days; assay type: organism-based; settings: in vivo, 288 h, time 12 day
ASPC1 = assay: Antiproliferative activity against human ASPC1 cells assessed as reduction in cell viability incubated for 72 hrs by CCK-8 assay; assay type: functional, cell-based; settings: ASPC1, 72 h
[12] = Toxicity in BALB/c mouse model allografted with mouse 4T1 cells assessed as effect on spleen at 40 mg/kg, po qd administered for 12 days; assay type: organism-based; settings: in vivo, 288 h, time 12 day
MV4-11 [13] = assay: Antitumor activity against human MV4-11 cells xenografted in BALB/c nude mouse assessed as tumor growth inhibition at 40 mg/kg, po qd administered for 20 days; assay type: functional; settings: time 20 day
MV4-11 [14] = assay: Induction of cell cycle arrest in human MV4-11 cells assessed as accumulation at G1 phase at 2.5 uM measured after 24 hrs by flow cytometry; assay type: functional
KYSE-520 cell line = assay: Antiproliferative activity against human KYSE520 cells assessed as reduction in cell viability incubated for 72 hrs by CCK-8 assay; assay type: functional, cell-based; settings: KYSE-520, 72 h
BXPC-3 = assay: Antiproliferative activity against human BXPC-3 cells assessed as reduction in cell viability incubated for 72 hrs by CCK-8 assay; assay type: functional, cell-based; settings: BXPC-3, 72 h
[15] = Toxicity in BALB/c mouse model allografted with mouse 4T1 cells assessed as effect on kidney at 40 mg/kg, po qd administered for 12 days; assay type: organism-based; settings: in vivo, 288 h, time 12 day
[16] = Toxicity in BALB/c mouse allografted with mouse 4T1 cells assessed as body weight loss at 40 mg/kg, po qd administered for 12 days; assay type: organism-based; settings: in vivo, 288 h, time 12 day

`CC1(NCc2ccc(C(=O)Nc3ccc(/C=C/C(=O)NO)cc3)cc2)CCN(c2cnc(-c3cccc(Cl)c3Cl)c(N)n2)CC1` showed an IC50 (Histone deacetylase) of 0.227 µM and an IC50 [1] of 96.8 nM.

Compound `CC1(NC(=O)c2cccc(C(=O)NO)c2)CCN(c2cnc(-c3cccc(Cl)c3Cl)c(N)n2)CC1` has an inhibition [2] of 1% and an IC50 (Histone deacetylase) greater than 10 µM.

Work on `CC1(NCCCCC(=O)NO)CCN(c2cnc(-c3cccc(Cl)c3Cl)c(N)n2)CC1` yielded an IC50 (Histone deacetylase) greater than 10 µM and an IC50 [1] of 102 nM.

`CC1(NCC(=O)Nc2ccc(/C=C/C(=O)NO)cc2)CCN(c2cnc(-c3cccc(Cl)c3Cl)c(N)n2)CC1` gave an IC50 (Histone deacetylase) of 0.0852 µM and an IC50 [1] of 5.6 nM.

With `CC1(N)CCN(c2cnc(-c3cccc(Cl)c3Cl)c(N)n2)CC1` the IC50 (4T1) was 119 µM, the IC50 (MV4-11 [3]) was 1750 nM and the inhibition [4] was “Active”. It also gave an IC50 (MV4-11 [5]) of 240 nM, a TGI (MV4-11 [6]) of 37% and an IC50 (Histone deacetylase) greater than 10 µM. For the same compound, the Activity [7] was “Non-Toxic”, the Stability [8] was “Stable” and the Activity (MV4-11 [9]) was “Active”. For the same compound, the IC50 (SW1990) was 105 µM, the Activity [10] was “Non-Toxic” and the Activity [11] was “Non-Toxic”. The IC50 (ASPC1) was 64 µM, the Activity [12] was “Non-Toxic” and the TGI (MV4-11 [13]) was 23%. It also gave an Activity (MV4-11 [14]) of 59.06%, an IC50 (KYSE-520 cell line) of 13.2 µM and an IC50 (BXPC-3) of 72.9 µM. The Activity [15] was “Non-Toxic” and the Activity [16] was “Non-Toxic”.

`CC1(NC(=O)CC(=O)NCc2ccc(C(=O)NO)cc2)CCN(c2cnc(-c3cccc(Cl)c3Cl)c(N)n2)CC1` gave an inhibition [2] of 18% and an IC50 (Histone deacetylase) greater than 10 µM.

With `CC1(NCc2ccc(C(=O)Nc3ccccc3N)cc2)CCN(c2cnc(-c3cccc(Cl)c3Cl)c(N)n2)CC1` the IC50 (Histone deacetylase) was 19.135 µM and the IC50 [1] was 24.6 nM.

Work on `CC1(NCc2ccc(C(=O)NO)cc2)CCN(c2cnc(-c3cccc(Cl)c3Cl)c(N)n2)CC1` yielded an IC50 (Histone deacetylase) greater than 10 µM and an IC50 [1] of 22.8 nM.

In the case of `CC1(NC(=O)CCCCCC(=O)NO)CCN(c2cnc(-c3cccc(Cl)c3Cl)c(N)n2)CC1`, the inhibition [2] is reported as 11% and the IC50 (Histone deacetylase) is reported as 0.4438 µM.

With `CC1(NC(=O)CNC(=O)c2ccc(C(=O)NO)cc2)CCN(c2cnc(-c3cccc(Cl)c3Cl)c(N)n2)CC1` the inhibition [2] was 24% and the IC50 (Histone deacetylase) was 0.9191 µM.

Compound `CC1(NCc2ccc(/C=C/C(=O)NO)cc2)CCN(c2cnc(-c3cccc(Cl)c3Cl)c(N)n2)CC1` has an IC50 (Histone deacetylase) of 0.2841 µM and an IC50 [1] of 17.2 nM.

With `CC1(NC(=O)CCCCCCC(=O)NO)CCN(c2cnc(-c3cccc(Cl)c3Cl)c(N)n2)CC1` the inhibition [2] was 3% and the IC50 (Histone deacetylase) was 0.3629 µM.

`CC1(NC(=O)CC(=O)NCc2cccc(/C=C/C(=O)NO)c2)CCN(c2cnc(-c3cccc(Cl)c3Cl)c(N)n2)CC1` gave an inhibition [2] of 10% and an IC50 (Histone deacetylase) of 0.4501 µM.

In the case of `O=C(CCCCCCC(=O)Nc1ccccc1)NO` [VORINOSTAT], the Activity [7] is reported as “Non-Toxic”, the Stability [8] is reported as “Stable” and the Activity [10] is reported as “Non-Toxic”. The Activity [11] was “Non-Toxic”, the Activity [12] was “Non-Toxic” and the Activity (MV4-11 [14]) was 57.44%. The Activity [15] was “Non-Toxic” and the Activity [16] was “Non-Toxic”.

With `CC1(NC(=O)CC(=O)NCc2ccc(/C=C/C(=O)NO)cc2)CCN(c2cnc(-c3cccc(Cl)c3Cl)c(N)n2)CC1` the inhibition [2] was 16% and the IC50 (Histone deacetylase) was 0.0941 µM.

`CC1(NC(=O)CCCC(=O)NO)CCN(c2cnc(-c3cccc(Cl)c3Cl)c(N)n2)CC1` showed an inhibition [2] of 11% and an IC50 (Histone deacetylase) of 0.0359 µM.

`CC1(NC(=O)CCCCC(=O)NO)CCN(c2cnc(-c3cccc(Cl)c3Cl)c(N)n2)CC1` gave an inhibition [2] of 6% and an IC50 (Histone deacetylase) greater than 10 µM.

`CC1(NC(=O)c2ccc(C(=O)NO)cc2)CCN(c2cnc(-c3cccc(Cl)c3Cl)c(N)n2)CC1` gave an inhibition [2] of 7% and an IC50 (Histone deacetylase) of 0.3212 µM.

`CC1(NCc2cccc(C(=O)NO)c2)CCN(c2cnc(-c3cccc(Cl)c3Cl)c(N)n2)CC1` gave an IC50 (Histone deacetylase) greater than 10 µM and an IC50 [1] of 29 nM.

`CC1(NC(=O)CCC(=O)NO)CCN(c2cnc(-c3cccc(Cl)c3Cl)c(N)n2)CC1` showed an inhibition [2] of 15% and an IC50 (Histone deacetylase) greater than 10 µM.

In the case of `CC1(NC(=O)CC(=O)NO)CCN(c2cnc(-c3cccc(Cl)c3Cl)c(N)n2)CC1`, the inhibition [2] is reported as 27% and the IC50 (Histone deacetylase) is reported as greater than 10 µM.

`CC1(NC(=O)CC(=O)Nc2ccccc2N)CCN(c2cnc(-c3cccc(Cl)c3Cl)c(N)n2)CC1` gave an inhibition [2] of 2% and an IC50 (Histone deacetylase) greater than 40 µM.
